Measured values from patent US20180273528A1 (LES LABORATOIRES SERVIER, priority 2015, published 2018).

Key:
DYRK1A [1] = target: T1, DYRK1A (Homo sapiens, UniProt Q13627); assay: Cellular DYRK1 autophosphorylation assay in U2-OS cells; format: cell-based; design: full-length, wild-type human DYRK1A (NM_001396) with an HA tag; expressed in transfected cells; host or cells: human U2-OS osteosarcoma cells, transient transfection of a pcDNA3.1 plasmid; details: U2-OS cells transfected with HA-tagged human DYRK1A, 5 hours exposure; read-out: IC50 (μM) P-Ser520-Dyrk1A -Cell assay
Summary of the method: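 U2-OS cells treated with a compound concentration range for 5 h. Phospho-Ser520-DYRK1A measured by western blot densitometry or Mesoscale ELISA. IC50 from dose-response curves; for blots, ratio of phospho-Ser520 to total DYRK1A signal.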

DYRK1A [2] = target: T1, DYRK1A; assay: Pharmacodynamic assay in RS4;11 tumor xenografts for inhibition of DYRK1A autophosphorylation; format: in vivo; design: tumors were excised and proteins were extracted in tissue lysis buffer; from tissue; host or cells: RS4;11 human leukemia xenograft tumors grown in female SCID mice; details: mouse, single oral administration, 2 h, RS4;11 tumors in SCID mice, read-out: phospho-Ser520-DYRK1A (% control at 2 h)
Procedure: For pharmacodynamics studies of inhibition of DYRK1A autophosphorylation, female SCID mice were injected subcutaneously with RS4; 11 human acute lymphoblastic leukemia cells. When tumors reached a size of 200-300 mm^3, mice were randomized into homogeneous groups of 3 and given a single oral administration of the compounds of the invention at doses of up to 100 mg/kg. […] The relative levels of phospho-Ser520-DYRK1A were assayed using western blotting. For this, lysates were diluted into Laemmli sample buffer (Bio-Rad) containing 5% v/v β-mercaptoethanol, heated for 5 min at 95° C., and resolved on Tris-glycine gels or NuPage Bis-Tris gels (Novex; Invitrogen). Biotinylated molecular weight standards (Cell Signaling Technology) were included in all gels. Proteins were transferred to nitrocellulose membranes (Hybond, ECL; Amersham), which were blocked in Tris-buffered saline/0.1% tween 20 (TBST) containing 5% milk, and probed at 4° C. overnight with anti-phospho-Ser520-DYRK1A antibody (Eurogentec SE6974-75; 0.23 μg/ml in 5% BSA) or anti DYRK1A antibody (Abnova H00001859; 0.5 μg/ml in 5% milk). Peroxidase-conjugated secondary antibodies were diluted into 5% milk and applied to membranes for 1 h at 20° C. Chemiluminescence detection was performed using the ECL plus western blotting detection kit (Amersham) and was recorded on ECL plus hyperfilm (Amersham). Blots were scanned using the Bio-Rad GS-800 calibrated densitometer and quantitative analysis of western blots was performed using TotalLab software (Amersham). The percentage inhibition of phospho-Ser520-DYRK1A as compared to the control tumors was calculated using the ratio between phospho-Ser520-DYRK1A and total DYRK1A signals at each dose.

Row | SMILES | IC50 (DYRK1A [1]) [µM] | response vs control in vivo at 9 mg/kg (DYRK1A [2]; dose 9 mg/kg) [%] | response vs control in vivo at 3 mg/kg (DYRK1A [2]) [%]
1 | Cc1nc2ccc(-c3cc(N)nc(N)c3)nc2n1C[C@@H](C)Oc1ccccc1 (single isomer, unassigned) [Example 106] | 0.073 | 46 | –
2 | Cc1nc2ccc(-c3cc(N)nc(N)c3)nc2n1C1CC1 [Example 9, 4-(3-cyclopropyl-2-methyl-3H-imidazo[4,5-b]pyridin-5-yl)pyridine-2,6-diamine] | 0.09 | – | 44
3 | Cc1nc2ccc(-c3cc(N)nc(N)c3)nc2n1Cc1ccoc1 [Example 42, 4-[3-(furan-3-ylmethyl)-2-methyl-3H-imidazo[4,5-b]pyridin-5-yl]pyridine-2,6-diamine] | 0.045 | – | 35
4 | Cc1nc2ccc(-c3cc(N)nc(N)c3)nc2n1CCCC(F)(F)F [Example 71, 4-[2-methyl-3-(4,4,4-trifluorobutyl)-3H-imidazo[4,5-b]pyridin-5-yl]pyridine-2,6-diamine] | 0.047 | – | 33
5 | Cc1nc2ccc(-c3cc(N)nc(N)c3)nc2n1C1CC(F)(F)C1 [Example 101, 4-[3-(3,3-difluorocyclobutyl)-2-methyl-3H-imidazo[4,5-b]pyridin-5-yl]pyridine-2,6-diamine] | 0.006 | – | 25
6 | Cc1nc2ccc(-c3cc(N)nc(N)c3)nc2n1C1CC(F)C1 (centres unmarked) [Example 103, 4-[3-(3-fluorocyclobutyl)-2-methyl-3H-imidazo[4,5-b]pyridin-5-yl]pyridine-2,6-diamine] | 0.014 | – | 41
7 | CCn1c(C)nc2ccc(-c3cc(N)nc(N)c3)nc21 [Example 154, 4-(3-ethyl-2-methyl-3H-imidazo[4,5-b]pyridin-5-yl)pyridine-2,6-diamine] | 0.02 | – | 28
